Test results as given in patent US12054498B2, “Heteroaromatic macrocyclic ether chemotherapeutic agents” (Nuvalent, Inc., priority 2020, dated 2024).

Tests used:
[1] = molecular target: T1, Ba/F3 cells CD74-ROS1 wild-type (wt) (Homo sapiens, UniProt P08922); assay: Ba/F3 cell proliferation assay, CD74-ROS1 wild-type; type: cell-based; conditions: 72 hours, CellTiter-Glo
T1 construct: fusion of the C-terminus of ROS1 with the N-terminus of various partner proteins; host or cells: Ba/F3 (RIKEN), retroviral pMSCV-puro; the other entry of the earlier key: CD74 (P04233, HLA class II histocompatibility antigen gamma chain)
T1 sequence (P08922 1883-2347 limits assumed): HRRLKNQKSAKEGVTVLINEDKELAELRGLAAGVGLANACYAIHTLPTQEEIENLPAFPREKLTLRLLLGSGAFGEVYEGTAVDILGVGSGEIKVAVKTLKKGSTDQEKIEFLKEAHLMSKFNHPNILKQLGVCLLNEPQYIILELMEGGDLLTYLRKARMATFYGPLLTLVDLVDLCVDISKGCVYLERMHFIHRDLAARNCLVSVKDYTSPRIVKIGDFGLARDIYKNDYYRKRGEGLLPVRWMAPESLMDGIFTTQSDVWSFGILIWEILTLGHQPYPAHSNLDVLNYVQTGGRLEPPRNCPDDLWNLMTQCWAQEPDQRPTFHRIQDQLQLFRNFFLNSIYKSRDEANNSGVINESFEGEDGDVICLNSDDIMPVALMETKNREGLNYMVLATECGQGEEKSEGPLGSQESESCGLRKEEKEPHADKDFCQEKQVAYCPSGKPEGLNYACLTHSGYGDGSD
Outline: (§1)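 Viability read by CellTiter-Glo luminescence after 72 h exposure to 3-fold serial compound dilutions, four-parameter logistic fitting giving IC50.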

ROS1-wt = molecular target: T2, ROS1-wt (Homo sapiens, UniProt P08922); assay: Biochemical kinase assay, ROS1-wt kinase domain; conditions: apparent inhibitory constant, Morrison equation; ATP 2 mM in substrate solution; read-out: ROS1-wt Ki^app
T2 construct: purchased Carna 08-163
T2 sequence (P08922 1945-2222 limits assumed): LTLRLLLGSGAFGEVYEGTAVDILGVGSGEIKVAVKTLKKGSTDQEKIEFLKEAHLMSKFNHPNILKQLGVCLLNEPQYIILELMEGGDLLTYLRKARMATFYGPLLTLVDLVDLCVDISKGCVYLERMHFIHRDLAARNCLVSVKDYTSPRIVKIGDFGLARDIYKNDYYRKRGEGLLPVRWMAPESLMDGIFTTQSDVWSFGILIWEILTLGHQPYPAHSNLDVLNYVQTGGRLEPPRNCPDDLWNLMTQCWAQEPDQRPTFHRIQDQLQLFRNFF
Procedure: (§2) First, 250 nL of compound dissolved in DMSO (100-fold of the desired concentration) was dispensed into a 384-well plate. A 12.5 μL substrate solution containing ATP (2 mM) and fluorogenic phosphorylation substrate AQT0101 (26 μM for ALK and ROS1, AssayQuant) or AQT0104 (26 μM for TRKA, AssayQuant) in buffer (50 mM HEPES pH 7.5, 0.01% Brij-35, 0.5 mM EGTA, 10 mM MgCl2) was added and mixed thoroughly. […] The plate was sealed and read by SpectraMax Paradigm at λ=485 nm every 2 minutes for 120 minutes at 30° C. Initial rates of reaction (v) were calculated from the change in fluorescence intensity over time during the initial, linear portion of the reaction. Finally, apparent inhibitory constants (Ki^app) were determined from regression of v and I (inhibitor concentration) to Morrison Equation (E=enzyme concentration): […]

ALK L1196M/G1202R = molecular target: T3, ALK L1196M/G1202R (Homo sapiens, UniProt Q9UM73, G1202R/L1196M); assay: Biochemical kinase assay, ALK L1196M/G1202R kinase domain; conditions: apparent inhibitory constant, Morrison equation; ATP 2 mM in substrate solution; read-out: ALK-L1196M-G1202R Ki^app
T3 construct: purchased SignalChem A19-12NG
T3 sequence (Q9UM73 1116-1392 L1196M/G1202R limits assumed): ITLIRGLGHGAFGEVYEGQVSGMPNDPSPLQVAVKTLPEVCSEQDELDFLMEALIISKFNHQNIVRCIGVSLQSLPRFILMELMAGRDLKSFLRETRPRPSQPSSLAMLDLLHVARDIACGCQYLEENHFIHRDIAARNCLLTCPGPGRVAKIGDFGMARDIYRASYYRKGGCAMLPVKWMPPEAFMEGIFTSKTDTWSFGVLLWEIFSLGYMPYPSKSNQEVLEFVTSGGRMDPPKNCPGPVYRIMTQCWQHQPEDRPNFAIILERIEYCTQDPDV
Procedure: (§3) First, 250 nL of compound dissolved in DMSO (100-fold of the desired concentration) was dispensed into a 384-well plate. A 12.5 μL substrate solution containing ATP (2 mM) and fluorogenic phosphorylation substrate AQT0101 (26 μM for ALK and ROS1, AssayQuant) or AQT0104 (26 μM for TRKA, AssayQuant) in buffer (50 mM HEPES pH 7.5, 0.01% Brij-35, 0.5 mM EGTA, 10 mM MgCl2) was added and mixed thoroughly. Then, a 12.5 μL kinase solution containing ALK-wt (1.5 nM, Carna, 08-518), ALK ALK L1196M/G1202R (3 nM, SignalChem, A19-12NG), ROS1-wt (0.6 nM, Carna, 08-163), ROS1-G2032R (0.5 nM, SignalChem, R14-12BG), or TRKA-wt (1 nM, BPS Bio, 40280) kinase domains in buffer ([…] HEPES pH 7.5, 0.01% Brij-35, 2% glycerol, 0.4 mg/mL BSA, 0.5 mM EGTA, and 10 mM MgCl2) was added and mixed thoroughly. The plate was sealed and read by SpectraMax Paradigm at λ=485 nm every 2 minutes for 120 minutes at 30° C. Initial rates of reaction (v) were calculated from the change in fluorescence intensity over time during the initial, linear portion of the reaction. Finally, apparent inhibitory constants (Ki^app) were determined from regression of v and I (inhibitor concentration) to Morrison Equation (E=enzyme concentration): […]

[2] = molecular target: T4, Ba/F3 cells EML4-ALK L1196M/G1202R (variant 1) (Homo sapiens, UniProt Q9UM73, G1202R/L1196M); assay: Ba/F3 cell proliferation assay, EML4-ALK L1196M/G1202R (variant 1); type: cell-based; conditions: 72 hours, CellTiter-Glo
T4 construct: echinoderm microtubule-associated protein-like 4 (EML4) gene and the ALK tyrosine kinase domain; host or cells: Ba/F3 (RIKEN), retroviral pMSCV-puro; the other entry of the earlier key: EML4 (Q9HC35, Echinoderm microtubule-associated protein-like 4)
T4 sequence (Q9UM73 with tags, fused parts or gaps L1196M/G1202R): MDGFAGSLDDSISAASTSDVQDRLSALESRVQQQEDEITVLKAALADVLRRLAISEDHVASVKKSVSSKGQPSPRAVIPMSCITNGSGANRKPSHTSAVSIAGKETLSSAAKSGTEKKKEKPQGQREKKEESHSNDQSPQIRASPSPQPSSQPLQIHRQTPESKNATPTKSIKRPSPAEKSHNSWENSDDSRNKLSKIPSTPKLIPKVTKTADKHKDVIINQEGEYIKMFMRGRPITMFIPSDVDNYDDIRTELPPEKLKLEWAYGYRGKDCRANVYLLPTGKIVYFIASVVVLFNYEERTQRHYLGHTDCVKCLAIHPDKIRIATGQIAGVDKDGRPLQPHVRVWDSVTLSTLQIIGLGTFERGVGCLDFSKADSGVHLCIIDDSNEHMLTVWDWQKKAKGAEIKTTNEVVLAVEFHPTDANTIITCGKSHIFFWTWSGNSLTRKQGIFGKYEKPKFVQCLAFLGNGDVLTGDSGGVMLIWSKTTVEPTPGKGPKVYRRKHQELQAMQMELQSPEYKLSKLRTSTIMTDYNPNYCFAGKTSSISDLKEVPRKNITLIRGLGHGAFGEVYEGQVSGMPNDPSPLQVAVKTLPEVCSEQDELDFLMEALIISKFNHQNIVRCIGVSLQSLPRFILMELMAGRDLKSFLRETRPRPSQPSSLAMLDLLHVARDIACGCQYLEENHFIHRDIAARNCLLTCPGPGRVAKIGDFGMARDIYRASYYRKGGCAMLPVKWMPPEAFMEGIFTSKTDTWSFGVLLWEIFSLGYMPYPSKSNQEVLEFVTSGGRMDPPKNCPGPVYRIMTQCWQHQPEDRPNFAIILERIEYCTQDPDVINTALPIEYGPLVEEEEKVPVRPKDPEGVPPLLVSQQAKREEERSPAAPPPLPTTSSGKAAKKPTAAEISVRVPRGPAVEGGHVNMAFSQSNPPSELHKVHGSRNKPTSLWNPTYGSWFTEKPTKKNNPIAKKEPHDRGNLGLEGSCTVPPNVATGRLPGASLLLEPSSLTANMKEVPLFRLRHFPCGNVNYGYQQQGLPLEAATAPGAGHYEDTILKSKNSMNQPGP
Outline: (§4)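 IL-3-independent Ba/F3 monoclones, puromycin-selected, transduced with fusion genes; 1,000 cells/well, 1 day rest, 3-fold compound series, 72 h. Read: CellTiter-Glo luminescence. IC50 from % inhibition vs concentration, 4-parameter logistic.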

Ba/F3 cells TPM3-TRKA = molecular target: T5, Ba/F3 cells TPM3-TRKA (Homo sapiens, UniProt P04629); assay: Ba/F3 cell proliferation assay, TPM3-TRKA; type: cell-based; conditions: 72 hours, CellTiter-Glo, read-out: TPM3-NTRK1-wt IC50
T5 construct: host or cells: Ba/F3 (RIKEN), retroviral pMSCV-puro; the other entry of the earlier key: TPM3 (P06753, Tropomyosin alpha-3 chain)
T5 sequence (P04629 510-796 limits assumed): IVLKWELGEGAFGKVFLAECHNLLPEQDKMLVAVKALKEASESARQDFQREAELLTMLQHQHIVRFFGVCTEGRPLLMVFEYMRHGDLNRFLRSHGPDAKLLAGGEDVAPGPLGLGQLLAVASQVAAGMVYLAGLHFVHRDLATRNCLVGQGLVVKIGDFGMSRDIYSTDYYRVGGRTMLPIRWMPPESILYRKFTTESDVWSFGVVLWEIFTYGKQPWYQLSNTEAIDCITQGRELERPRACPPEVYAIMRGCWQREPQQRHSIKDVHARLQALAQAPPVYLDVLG
Outline: as §4

ROS1-G2032R = molecular target: T6, ROS1-G2032R (Homo sapiens, UniProt P08922, G2032R); assay: Biochemical kinase assay, ROS1-G2032R kinase domain; conditions: apparent inhibitory constant, Morrison equation; ATP 2 mM in substrate solution; read-out: ROS1-G2032R Ki^app
T6 construct: purchased SignalChem R14-12BG
T6 sequence (P08922 1945-2222 G2032R limits assumed): as the sequence (P08922 1945-2222 limits assumed) above, with G88R counted along it
Procedure: as §2

[3] = molecular target: T7, Ba/F3 cells CD74-ROS1 G2032R (Homo sapiens, UniProt P08922, G2032R); assay: Ba/F3 cell proliferation assay, CD74-ROS1 G2032R; type: cell-based; conditions: 72 hours, CellTiter-Glo
T7 construct: fusion of the C-terminus of ROS1 with the N-terminus of various partner proteins; host or cells: Ba/F3 (RIKEN), retroviral pMSCV-puro; the other entry of the earlier key: CD74 (P04233, HLA class II histocompatibility antigen gamma chain)
T7 sequence (P08922 1883-2347 G2032R limits assumed): as the sequence (P08922 1883-2347 limits assumed) above, with G150R counted along it
Outline: as §1

[4] = molecular target: T8, Ba/F3 cells EML4-ALK wt (variant 1) (Homo sapiens, UniProt Q9UM73); assay: Ba/F3 cell proliferation assay, EML4-ALK wt (variant 1); type: cell-based; conditions: 72 hours, CellTiter-Glo
T8 construct: echinoderm microtubule-associated protein-like 4 (EML4) gene and the ALK tyrosine kinase domain; host or cells: Ba/F3 (RIKEN), retroviral pMSCV-puro; the other entry of the earlier key: EML4 (Q9HC35, Echinoderm microtubule-associated protein-like 4)
T8 sequence (Q9UM73 with tags, fused parts or gaps): as the sequence (Q9UM73 with tags, fused parts or gaps L1196M/G1202R) above, with M635L, R641G counted along it
Outline: as §4

[5] = tested on: TPM3-NTRK1-wt IC50 / primary target IC50 (e.g. CD74-ROS1-wt); assay: TRKA selectivity in Ba/F3 cells (TRKA potency divided by primary target potency); type: cell-based; conditions: for TPM3-NTRK1-wt/CD74-ROS1-G2032R selectivity ratio: TRKA potency / CD74-ROS1-G2032R potency; for TPM3-NTRK1-wt/CD74-ROS1-wt selectivity ratio: TRKA potency / CD74-ROS1-wt potency; for TPM3-NTRK1-wt/EML4-ALK-L1196M-G1202R selectivity ratio: TRKA potency / EML4-ALK-L1196M-G1202R potency; for TPM3-NTRK1-wt/EML4-ALK-wt selectivity ratio: TRKA potency / EML4-ALK-wt potency
Procedure: TRKA selectivity was calculated by dividing a compound's TRKA potency by its primary target potency (e.g. TPM3-NTRK1-wt IC50/CD74-ROS1-wt IC50). Compound selectivity can be interpreted by binning ratio values: bin A for very high selectivity, ratio >30-fold; bin B for high selectivity, ratio >10-fold; bin C for moderate selectivity, ratio ≥1; and bin D for low selectivity, ratio <1. […] (nd=not determined).

TRKA-wt = molecular target: T9, TRKA-wt (Homo sapiens, UniProt P04629); assay: Biochemical kinase assay, TRKA-wt kinase domain; conditions: apparent inhibitory constant, Morrison equation; ATP 2 mM in substrate solution; read-out: TRKA-wt Ki^app
T9 construct: or TRKA-wt (1 nM, BPS Bio, 40280) kinase domains in buffer; purchased BPS Bio 40280
T9 sequence (P04629 510-781 limits assumed): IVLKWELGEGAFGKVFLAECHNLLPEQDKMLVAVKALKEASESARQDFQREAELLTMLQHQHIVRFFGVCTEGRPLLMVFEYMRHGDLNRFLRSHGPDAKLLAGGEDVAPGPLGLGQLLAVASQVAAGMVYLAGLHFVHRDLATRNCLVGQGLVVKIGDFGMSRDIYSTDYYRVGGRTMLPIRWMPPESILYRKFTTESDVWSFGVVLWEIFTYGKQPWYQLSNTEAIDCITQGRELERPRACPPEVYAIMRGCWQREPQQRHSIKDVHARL
Procedure: as §3

ALK-wt = molecular target: T10, ALK-wt (Homo sapiens, UniProt Q9UM73); assay: Biochemical kinase assay, ALK-wt kinase domain; conditions: apparent inhibitory constant, Morrison equation; ATP 2 mM in substrate solution; read-out: ALK-wt Ki^app
T10 construct: purchased Carna 08-518
T10 sequence (Q9UM73 1116-1392 limits assumed): as the sequence (Q9UM73 1116-1392 L1196M/G1202R limits assumed) above, with M81L, R87G counted along it
Procedure: as §3

IC50 [1] | Ki (ROS1-wt) | Ki (ALK L1196M/G1202R) | IC50 [2] | IC50 (Ba/F3 cells TPM3-TRKA) | Ki (ROS1-G2032R) | IC50 [3] | IC50 [4] | Ki (TRKA-wt) | Ki (ALK-wt) | Structure (SMILES) | TPM3-NTRK1-wt/CD74-ROS1-G2032R selectivity ratio [5] | TPM3-NTRK1-wt/CD74-ROS1-wt selectivity ratio [5] | TPM3-NTRK1-wt/EML4-ALK-L1196M-G1202R selectivity ratio [5] | TPM3-NTRK1-wt/EML4-ALK-wt selectivity ratio [5]
0.1 to 50 nM | < 50 nM | < 50 nM | 0.1 to 50 nM | > 500 nM | < 50 nM | 0.1 to 50 nM | 0.1 to 50 nM | > 500 nM | < 50 nM | C[C@H]1Oc2cc(cnc2N)-c2c(nnn2CC2CC2)Cc2nn(C)nc2-c2ccc(F)cc21 [Example 51, (19R)-3-(cyclopropylmethyl)-16-fluoro-10,19-dimethyl-20-oxa-3,4,5,9,10,11,23-heptaazapentacyclo[19.3.1.0^2,^6.0^8,^12.0^13,^18]pentacosa-1(24),2(6),4,8,11,13,15,17,21(25),22-decaen-22-amine] | A (bin A for very high selectivity, ratio >30-fold) | A (bin A for very high selectivity, ratio >30-fold) | A (bin A for very high selectivity, ratio >30-fold) | A (bin A for very high selectivity, ratio >30-fold)
0.1 to 50 nM | < 50 nM | 50 to 500 nM | > 500 nM | > 500 nM | 50 to 500 nM | 0.1 to 50 nM | 50 to 500 nM | > 500 nM | 50 to 500 nM | C[C@H]1Oc2cc(cnc2N)-c2c(c(Cl)nn2CC(F)F)Cc2nn(C)nc2-c2ccc(F)cc21 [Example 60, (19R)-5-chloro-3-(2,2difluoroethyl)-16-fluoro-10,19-dimethyl-20-oxa-3,4,9,10,11,23-hexaazapentacyclo[19.3.1.0^2,^6.0^8,^12.0^13,^18]pentacosa-1(24),2(6),4,8,11,13,15,17,21(25),22-decaen-22-amine] | A (bin A for very high selectivity, ratio >30-fold) | A (bin A for very high selectivity, ratio >30-fold) | B (bin B for high selectivity, ratio >10-fold) | A (bin A for very high selectivity, ratio >30-fold)
0.1 to 50 nM | < 50 nM | < 50 nM | 50 to 500 nM | > 500 nM | 50 to 500 nM | 0.1 to 50 nM | 0.1 to 50 nM | 50 to 500 nM | < 50 nM | CCc1noc2c1-c1cnc(N)c(c1)O[C@H](C)c1cc(F)ccc1-c1ncnn1C2 [Example 50, (19R)-3-ethyl-16-fluoro-19-methyl-5,20-dioxa-4,8,9,11,23-pentaazapentacyclo[19.3.1.0^2,^6.0^8,^12.0^13,^18]pentacosa-1(24),2(6),3,9,11,13,15,17,21(25),22-decaen-22-amine] | B (bin B for high selectivity, ratio >10-fold) | A (bin A for very high selectivity, ratio >30-fold) | C (bin C for moderate selectivity, ratio ≥1) | A (bin A for very high selectivity, ratio >30-fold)
0.1 to 50 nM | < 50 nM | < 50 nM | 50 to 500 nM | > 500 nM | < 50 nM | 0.1 to 50 nM | 0.1 to 50 nM | > 500 nM | < 50 nM | CCn1nnc2c1-c1cnc(N)c(c1)O[C@H](C)c1cc(F)ccc1-c1scnc1C2 [Example 53, (19R)-3-ethyl-16-fluoro-19-methyl-20-oxa-11-thia-3,4,5,9,23-pentaazapentacyclo[19.3.1.0^2,^6.0^8,^12.0^13,^18]pentacosa-1(24),2(6).4,8(12),9,13,15,17,21(25),22-decaen-22-amine] | A (bin A for very high selectivity, ratio >30-fold) | A (bin A for very high selectivity, ratio >30-fold) | C (bin C for moderate selectivity, ratio ≥1) | B (bin B for high selectivity, ratio >10-fold)
0.1 to 50 nM | < 50 nM | < 50 nM | 50 to 500 nM | > 500 nM | < 50 nM | 0.1 to 50 nM | 0.1 to 50 nM | > 500 nM | < 50 nM | Cc1nn(CC2CC2)c2c1Cn1nccc1-c1ccc(F)cc1[C@@H](C)Oc1cc-2cnc1N [Example 45, (19R)-3-(cyclopropylmethyl)-16-fluoro-5,19-dimethyl-20-oxa-3,4,8,9,23-pentaazapentacyclo[19.3.1.0^2,^6.0^8,^12.0^13,^18]pentacosa-1(24),2(6),4,9,11,13,15,17,21(25),22-decaen-22-amine] | A (bin A for very high selectivity, ratio >30-fold) | A (bin A for very high selectivity, ratio >30-fold) | A (bin A for very high selectivity, ratio >30-fold) | A (bin A for very high selectivity, ratio >30-fold)
